# Measured values taken from patent publication US20250262226A1, “COMBINATIONS OF VITAMIN D3, NIACINAMIDE AND LIPOIC ACID FOR USE IN THE MAINTENANCE OF HEALTHY BLOOD GLUCOSE LEVELS” (priority 2022, published 2025).
# Tested on: L6 muscle cells
# Assay: Insulin-stimulated glucose uptake (2-NBDG) in L6 muscle cells
# Type: cell-based
# Details: for glucose uptake relative to control cells: insulin stimulated, FIG. 5, V 500 IU, N 15 mg/ml, LA 0.5 mM; for increase in glucose uptake after insulin pulse over control cells: 100 nM insulin, FIG. 4
# Description: The effect of each of vitamin D3, niacinamide and lipoic acid separately, and the fixed dose combination of vitamin D3, niacinamide and lipoic acid composition provided herein, were evaluated for the ability of each to have an effect on glucose uptake in an in vitro model. A goal was to improve insulin's ability to increase the uptake of glucose by L6 muscle cells.
# Vitamin D3 was utilized to increase GLUT4 levels since this vitamin has been shown before to increase GLUT4 levels in muscle, and niacinamide was used to increase cellular NAD levels (El-Fakhri et al., Horm Res Paediact 81:363-378 (2014); Manna et al., J Biol Chem 287 (50): 42324-42332 (2012); Garten, Endocrinologist, Issue 135 (2020); and Fan et al., J Diabetes Investig. 11 (6): 1403-1419 (2020)). Glucose uptake studies using L6 cells were performed. L6 cells (ATCC CLR-1458; Rockville, MD) were maintained in Dulbecco's modified Eagle's medium (DMEM) supplemented with 10% Fetal Bovine Serum (FBS) and 100 μg/mL penicillin and streptomycin, at 37° C. in an atmosphere of 5% CO2. 2-(N-[7-nitrobenz-2-oxa-1, 3-diazol-4-yl]amino)-2-deoxyglucose (2-NBDG) (Molecular Probes-Invitrogen, CA, USA) was used to assess glucose uptake in the L6 cells. The cells were kept in glucose free medium for half an hour before insulin stimulation. The cells were then stimulated with 100 nM insulin for 10 and 20 min and incubated with 10 μM of 2-NBDG for 15 min. The reaction was stopped by washing with cold PBS three times and the cells were lysed using 0.1% Triton X. The lysate was then used to read florescence at […]. The data is reported in FIG. 4 as percent of control cells (no treatment, incubation with media).
# Experiment conducted n=5. Student's t-tests were performed to compare between the present glucose uptake shown by control, vitamin D, niacinamide, and their combination at different time points.
# Because the TCA cycle and glucose metabolism in the mitochondria generate oxidative stress, lipoic acid, an antioxidant (Golbidi et al., Front Pharmacol, Vol. 2, Article 69 (2011), 15 pages) which is known to enter the mitochondria, was tested to determine if it could further enhance glucose uptake. The following combinations were tested for improvements in muscle cell glucose uptake stimulated by insulin: Vitamin D3 plus Niacinamide plus or minus Lipoic acid alone.
Compound,glucose uptake relative to control cells,increase in glucose uptake after insulin pulse over control cells (10 minutes),increase in glucose uptake after insulin pulse over control cells (20 minutes)
"O=C(O)CCCCC1CCSS1 (racemic) [Lipoic acid, DL-alpha-lipoic acid]",did not increase glucose uptake,–,–
Vitamin E,had no effect,–,–
"C=C1CC[C@H](O)C/C1=C/C=C1\CCC[C@]2(C)[C@@H]([C@H](C)CCCC(C)C)CC[C@@H]12 [vitamin D3, cholecalciferol]",–,about 6 fold,less so
NC(=O)c1cccnc1 [niacinamide],–,about 3 fold,only little
